In paper PMC6145916, “Interaction of mitochondrial fission factor with dynamin related protein 1 governs physiological mitochondrial function in vivo” (Scientific Reports, 2018):
Where no end group is shown, it is not given here.

System: fission and fusion proteins
Assay: Expression of fission and fusion proteins, mitochondrial content and mitophagy in brain of wild-type mice
Assay type: in vivo, mouse
Details: 3 mg/Kg/day, subcutaneous osmotic pump, 8 weeks, WT mice
Protocol: Five-week old R6/2 HD mice and their wild-type littermates (a total of 60 mice) were implanted subcutaneously with a 28-d Alzet osmotic pump with either P259-TAT or TAT control peptide (15 mice per group) to be delivered continuously at a rate of 3 mg/Kg/day, as previously described. All mice were implanted twice for a total of an 8-week treatment. 20 of the WT mice were implanted 3 times for a total of a 12-week treatment at 3 mg/Kg/day. All the experiments were in accordance with protocols approved by the Institutional Animal Care and Use Committee of Stanford University and were performed based on the National Institutes of Health Guide for the Care and Use of Laboratory Animals. All methods were carried out in accordance with the relevant guidelines and regulations. […]
membrane in brains of wild-type mice, while not affecting expression levels of other fission and fusion machinery proteins. Total lysate (a,c) and mitochondrial fraction (b) from brain […]
Represented western blots are cropped from full blots shown in the Expanded Western Blots section of the Supplementary Information. […]
Supplementary Figure 4. Principal component analysis of behaviors from wild-type mice treated with P259. a. The top 20% of behaviors collected from wild-type mice treated with 3 […]
ANOVA F- and mutual information scores for each behavior (week designation corresponds to mouse age when the behavior was observed). b. The eigenvector of the first principal component, representing 42% of the variation of the data. […]
finally washed three times with RIPA buffer. Finally, beads were resuspended in 20 µL of Laemmli […]
The effect of peptides on GTPase activity of Drp1 was measured by incubating recombinant Drp1 […]
for 1 hour at 37 °C. GTPase activity was measured using a colorimetric GTPase assay kit (Novus Biologicals, CO, USA) as instructed by the manufacturer. […]

YGRKKRRQRRRGSGIIQLPEIVVV-NH2 (C-terminus assumed) [P259]
no effect: expression levels of both fission and fusion proteins | mitophagy | overall mitochondrial content
